Experimental data published in the supplement of paper PMC13380429.

Columns and labels:
Conditions in all cases: 72 h
HepG2 [1] = test: relative viability EC50 (midpoint between 100% and the lowest measured viability); higher = less toxic
Caco-2 [2] = test: as above
Calu-3 [3] = test: as above
Vero E6 [4] = test: as above
U2OS [5] = test: as above
HepG2 [6] = test: drug sensitivity score (DSS) for viability; higher = more toxic; extreme values may be limits of the assay
Caco-2 [7] = test: as above
Calu-3 [8] = test: as above
Vero E6 [9] = test: as above
U2OS [10] = test: as above
HepG2 [11] = test: cell viability relative to DMSO; higher = less toxic
Caco-2 [12] = test: as above
Calu-3 [13] = test: as above
Vero E6 [14] = test: as above
U2OS [15] = test: as above

Structure (SMILES)	relative viability EC50 (HepG2 [1])	relative viability EC50 (Caco-2 [2])	relative viability EC50 (Calu-3 [3])	relative viability EC50 (Vero E6 [4])	relative viability EC50 (U2OS [5])	drug sensitivity score (HepG2 [6])	drug sensitivity score (Caco-2 [7])	drug sensitivity score (Calu-3 [8])	drug sensitivity score (Vero E6 [9])	drug sensitivity score (U2OS [10])	cell viability (HepG2 [11]; 1 nM)	cell viability (HepG2 [11]; 10 nM)	cell viability (HepG2 [11]; 100 nM)	cell viability (HepG2 [11]; 1000 nM)	cell viability (HepG2 [11]; 10000 nM)	cell viability (Caco-2 [12]; 1 nM)	cell viability (Caco-2 [12]; 10 nM)	cell viability (Caco-2 [12]; 100 nM)	cell viability (Caco-2 [12]; 1000 nM)	cell viability (Caco-2 [12]; 10000 nM)	cell viability (Calu-3 [13]; 1 nM)	cell viability (Calu-3 [13]; 10 nM)	cell viability (Calu-3 [13]; 100 nM)	cell viability (Calu-3 [13]; 1000 nM)	cell viability (Calu-3 [13]; 10000 nM)	cell viability (Vero E6 [14]; 1 nM)	cell viability (Vero E6 [14]; 10 nM)	cell viability (Vero E6 [14]; 100 nM)	cell viability (Vero E6 [14]; 1000 nM)	cell viability (Vero E6 [14]; 10000 nM)	cell viability (U2OS [15]; 1 nM)	cell viability (U2OS [15]; 10 nM)	cell viability (U2OS [15]; 100 nM)	cell viability (U2OS [15]; 1000 nM)	cell viability (U2OS [15]; 10000 nM)
CCc1nc2ccc(Cl)cn2c1C(=O)NCc1ccc(N2CCC(c3ccc(OC(F)(F)F)cc3)CC2)cc1 [Q-203]	> 10 µM	> 10 µM	> 10 µM	> 10 µM	> 10 µM	0.1	0.1	0	0	0	106%	108%	92.1%	100%	86.8%	97.3%	95.9%	97.1%	93.5%	85.3%	99.7%	100%	104%	99.6%	104%	107%	100%	99.9%	98.8%	96.5%	98.6%	101%	97.8%	97.4%	99.8%
CN1Cc2c(C(=O)OC(C)(C)C)ncn2-c2ccsc2C1=O [Ro-19-4605]	> 10 µM	> 10 µM	> 10 µM	> 10 µM	> 10 µM	0	0	0	0	0	105%	96.9%	115%	96.6%	108%	98.8%	102%	101%	100%	103%	96.9%	98%	89%	103%	99.3%	101%	96.4%	103%	96.8%	103%	94.5%	92.8%	95.4%	102%	97.2%
Cc1cc(C)cc(NC(=O)Nc2ccc(OS(N)(=O)=O)cc2)c1 [S4]	> 10 µM	> 10 µM	> 10 µM	> 10 µM	> 10 µM	0	0	0	0	0	107%	99.3%	104%	108%	97.2%	105%	97.6%	99.3%	87.4%	101%	104%	104%	92.7%	100%	89.5%	102%	103%	103%	103%	96.6%	102%	96.9%	100%	98.1%	99%
CN1CCC[C@@H]1CCSc1ccc(O)cc1 [SIB-1553A]	> 10 µM	> 10 µM	> 10 µM	> 10 µM	> 10 µM	0	0	0	0	0	95%	88.9%	95.4%	88.1%	111%	94.4%	100%	99.7%	102%	105%	98.7%	103%	98.6%	91.6%	99.3%	106%	95.7%	97.5%	96%	104%	97.9%	101%	97.1%	101%	106%
C=CCNc1ncnc2ccc(Br)cc12 [SMER-28]	> 10 µM	> 10 µM	> 10 µM	> 10 µM	> 10 µM	0.6	0	0.4	0	0	92.3%	98%	102%	102%	78.8%	99.5%	93.4%	98.7%	103%	91.2%	101%	103%	96.1%	100%	82.7%	93.6%	98.3%	95.8%	99.8%	101%	101%	97%	102%	96.9%	101%
Cc1nc(-c2cccnc2)sc1C(=O)Nc1ccccc1-c1cn2c(CN3CCOCC3)csc2n1 [SRT2104]	> 10 µM	> 10 µM	> 10 µM	> 10 µM	> 10 µM	0	0	0	0	0	100%	92.8%	98.8%	90.6%	108%	90.6%	92.2%	104%	99.2%	102%	93.6%	98.8%	102%	104%	112%	98%	94.9%	92.9%	90.8%	106%	95.5%	104%	94.6%	101%	99.2%
CCS(=O)(=O)c1cccc(-c2cc(C(=O)NC3CCN(C)CC3)c(C)c3[nH]c4ncc(C)cc4c23)c1 [TAK-901]	0.439 µM	1.06 µM	1.28 µM	> 10 µM	1.43 µM	12.7	6.7	8	1.1	8.9	94.1%	104%	76.5%	48.1%	15.7%	98.4%	99.7%	90.4%	72%	36.5%	108%	100%	95.5%	69.9%	21.3%	105%	100%	100%	97%	78.7%	98.3%	98.5%	98.9%	73.6%	9.3%
